“Also recorded” adds a separate entry of the source. Marks after values point to notes of the source that are not given here. Each block holds one compound with its values, some of them ahead of it.
Key:
[1] = Stability in liquid nutritional type products during retort sterilization and room temperature storage; assay type: physicochemical
Experimental: In order to test the stability of N-acetyl-L-glutamine in a matrix similar to that found in liquid nutritional type products, the following procedure was followed. […] The product containing N-acetyl-L-glutamine was made according to the procedure set forth above in Example 1. The product containing glutamine was made in a similar manner, except […].79 kg) was substituted for N-acetyl-L-glutamine. The products were assessed for degradation before and after a retort sterilization process, which is typical for liquid nutritional processing (here, 128° C. for 5 minutes). The products were stored at room temperature (20-22° C.) and assessed for evidence of degradation at 1, 2 and 3 months. Glutamine, N-acetyl-L-glutamine and pyroglutamic acid (if present) were quantified at each process and time point. In order to analyze by HPLC for glutamine, N-acetyl-L-glutamine and pyroglutamic acid, samples were filtered as follows. A 5.0 mL aliquot was transferred to a 50 mL volumetric flask. Twenty drops of 1 M hydrochloric acid was added and the sample was diluted to volume with deionized water. An aliquot was filtered through a 0.45 micron filter (Millipore, Millex®-HV, 25 mm). The samples were analyzed by HPLC as described above (Heat Stability section). The total amount of pyroglutamic acid present in the protein formula, including both free pyroglutamic acid and N-terminal pyroglutamic acid, can be determined by the following method. Initially, samples were prepared as a water solution to a concentration of approximately 18 g total protein/L. A 20 microliter aliquot of the prepared sample material was placed in a 1.5 mL screw cap vial, and 980 microliters of a freshly prepared enzyme solution (0.05 M Tris, 0.005 M dithiothreitol, 0.001 M disodium ethylenediaminetetraacetic acid (EDTA), pH 8.0, containing 11 units of pyroglutamate aminopeptidase/mL) was added. The vial was tightly capped, and incubated at room temperature (21-24° C.) for 24 hours. The solution was then processed through a C-18 SPE cartridge as detailed below. For free pyroglutamic acid determination, the initial sample solution was diluted to a total protein content of 2-3 g/L in deionized water, and processed through a C-18 SPE cartridge. C-18 SPE (Solid Phase Extraction) cartridges (100 mg/1 mL size) were obtained from Burdick & Jackson, Muskegon, Mich. SPE cartridges were prepared for use with 2×5 volumes of methanol, and then rinsed with 2×5 volumes of deionized water. The 1 mL sample is then slowly applied, and flow-through material collected in a […] screw cap vial. Elution was completed by applying 2×500 microliters of deionized water, collecting pass through volume in the same vial. The eluate was mixed, and then an aliquot filtered through a 0.45 micrometer filter prior to HPLC analysis (25 mm, 0.45 micrometer filters were obtained from Gelman, Ann Arbor, Mich.). The HPLC system used had the following parameters: pump model G1312A, autosampler model G1313A, thermostatted column compartment model G1316A, diode array detector model G1315A, and peak integrator/data processor model […], all obtained from Agilent Technologies, Palo Alto, Calif. Column: 6.5×150 mm ION-310, 8 micrometer from Interaction Chromatography, San Jose, Calif. The system was pre-equilibrated in mobile phase (5 mN H2SO4) at 40° C. at 0.3 mL/min. prior to use. For analysis a 10 microliter aliquot of sample or standard was injected, and the column was eluted with mobile phase at 0.3 mL/min. and 40° C. Eluting materials were detected by UV absorption at 210 nm and 220 nm. The run time was 45 min. Unknown sample concentrations were determined by comparison to standards. Three aqueous solutions of pyroglutamic acid are usually sufficient as standards, i.e., 10, 20, and 40 mg/L (pyroglutamic acid obtained from Fluka, Milwaukee, Wis.).

[2] = Aqueous N-acetyl-L-glutamine and glutamine heat stability at 100° C. (HPLC); assay type: physicochemical; conditions: for Stability during incubation at 100° C. (in words): aqueous solution, 2 hour incubation at 100° C.
Experimental: In order to test the stability of aqueous N-acetyl-glutamine upon heating, the following procedure was followed. Aqueous solutions of N-acetyl-L-glutamine (obtained from Sigma, catalog no. A-9125) and glutamine (obtained from Aldrich, catalog no. G-320-2) at approximately 1 mg/mL (5.3 mM and 6.8 mM, respectively) were prepared without pH adjustment. The pH of the resulting N-acetyl-L-glutamine solution was 2.9 and the pH of the glutamine solution was 6.0. The solutions were heated at 100° C. using a Reacti-Therm™ stirring heat block with sealed 4 mL vessels, one for each time point: 15 minutes, 30 minutes, 1 hour and 2 hours. The samples were removed from the heat block and immediately placed into ice until cool. An aliquot of each sample was filtered through 0.45 micrometer filters (Millipore Millex®-HV, 25 mm) for assessment by HPLC. HPLC analysis was conducted using an Inertsil® C8, 5 micrometer, 4.6×250 mm column (obtained from Keystone Scientific, Inc., Bellefonte, Pa.). The mobile phase was water adjusted to pH 2.2 with HCl (isocratic at 1 mL/minute). The injection volume was 10 microliters. Ultraviolet detection was at 214 nm.

[3] = 1 month at room temperature after sterilization
[4] = 2 months at room temperature after sterilization
[5] = 3 months at room temperature after sterilization
[6] = Post-Sterilization (retort, 128° C. for 5 minutes)
[7] = approx. 1 mg/mL, pH 6.0, 100° C., 30 min
[8] = approx. 1 mg/mL, pH 6.0, 100° C., 60 min
[9] = approx. 1 mg/mL, pH 6.0, 100° C., 120 min

Glutamine in product with glutamine [1, 3]: 13.7 mmol/L product | pyroglutamic acid in product with glutamine ([1]; 1 month, calculated with response factor from glutamine standard): 92.9* mmol/L product | pyroglutamic acid in product with glutamine ([1]; 2 months, calculated with response factor from pyroglutamic acid standard): 79.8** mmol/L product | Glutamine in product with glutamine [1, 5]: none | pyroglutamic acid in product with glutamine ([1]; 3 months, calculated with response factor from pyroglutamic acid standard): 80.6** mmol/L product | Glutamine in product with glutamine [1, 6]: 34.2 mmol/L product | pyroglutamic acid in product with glutamine ([1]; Post-Sterilization, calculated with response factor from glutamine standard): 77.5* mmol/L product | pyroglutamic acid in product with glutamine ([1]; Pre-Sterilization, calculated with response factor from glutamine standard): 27.1* mmol/L product | Glutamine remaining as fraction of the original concentration ([1]; glutamine supplemented product, after the sterilization process): about ⅓ | Glutamine in product with glutamine ([1]; liquid nutritional type product, Pre-Sterilization (theoretical 87.6)): 97.8 mmol/L product | GLN (glutamine) in glutamine solution ([2]; approx. 1 mg/mL (6.8 mM), pH 6.0, 100° C., 0 min): 100.0 height % | PGA (pyroglutamic acid) in glutamine solution ([2]; approx. 1 mg/mL, pH 6.0, 100° C., 0 min): none detected | GLN (glutamine) in glutamine solution [2, 7]: 90.2 height % | PGA (pyroglutamic acid) in glutamine solution [2, 7]: 9.8 height % | GLN (glutamine) in glutamine solution [2, 8]: 80.0 height % | PGA (pyroglutamic acid) in glutamine solution [2, 8]: 20.0 height % | GLN (glutamine) in glutamine solution [2, 9]: 53.6 height % | GLU (glutamate) in glutamine solution [2, 9]: 10.6 height % | PGA (pyroglutamic acid) in glutamine solution [2, 9]: 35.8 height % | Stability during incubation at 100° C. (in words) [2]: not stable
SMILES: NC(=O)CC[C@H](N)C(=O)O [Glutamine, glutamine]
Glutamine in product with glutamine [1, 4]: no glutamine was detected; also recorded: trace

SMILES: CC(=O)N[C@@H](CCC(N)=O)C(=O)O [N-acetyl-L-glutamine]
N-acetyl-L-glutamine in product with N-acetyl-L-glutamine [1, 3]: 89.8 mmol/L product | N-acetyl-L-glutamine in product with N-acetyl-L-glutamine [1, 4]: 94.1 mmol/L product | N-acetyl-L-glutamine in product with N-acetyl-L-glutamine [1, 5]: 89.3 mmol/L product | N-acetyl-L-glutamine in product with N-acetyl-L-glutamine [1, 6]: 89.8 mmol/L product | Degradation in the liquid nutritional type product (in words) ([1]; during sterilization or after 3 months room temperature storage): no degradation | N-acetyl-L-glutamine in product with N-acetyl-L-glutamine ([1]; liquid nutritional type product, Pre-Sterilization (theoretical 87.7)): 92.5 mmol/L product | NAQ (N-acetyl-L-glutamine) in N-acetyl-L-glutamine solution ([2]; approx. 1 mg/mL (5.3 mM), pH 2.9, 100° C., 0 min): 99.7 area % | NAQ (N-acetyl-L-glutamine) in N-acetyl-L-glutamine solution ([2]; approx. 1 mg/mL, pH 2.9, 100° C., 30 min): 98.1 area % | NAQ (N-acetyl-L-glutamine) in N-acetyl-L-glutamine solution ([2]; approx. 1 mg/mL, pH 2.9, 100° C., 60 min): 96.9 area % | NAQ (N-acetyl-L-glutamine) in N-acetyl-L-glutamine solution ([2]; approx. 1 mg/mL, pH 2.9, 100° C., 120 min): 93.4 area % | Stability during incubation at 100° C. (in words) [2]: much more stable than glutamine | NAE (N-acetyl-L-glutamic acid) in N-acetyl-L-glutamine solution ([2]; pH 2.9, 100° C., 0 min): 0.3 area % | 2,6-DPA (2,6-dioxopiperidinylacetamide) in N-acetyl-L-glutamine solution ([2]; pH 2.9, 100° C., 30 min): 0.6 area % | NAE (N-acetyl-L-glutamic acid) in N-acetyl-L-glutamine solution ([2]; pH 2.9, 100° C., 30 min): 1.2 area % | 2,6-DPA (2,6-dioxopiperidinylacetamide) in N-acetyl-L-glutamine solution ([2]; pH 2.9, 100° C., 60 min): 1.3 area % | NAE (N-acetyl-L-glutamic acid) in N-acetyl-L-glutamine solution ([2]; pH 2.9, 100° C., 60 min): 1.8 area % | 2,6-DPA (2,6-dioxopiperidinylacetamide) in N-acetyl-L-glutamine solution ([2]; pH 2.9, 100° C., 120 min): 2.7 area % | NAE (N-acetyl-L-glutamic acid) in N-acetyl-L-glutamine solution ([2]; pH 2.9, 100° C., 120 min): 3.7 area % | PGA (pyroglutamic acid) in N-acetyl-L-glutamine solution ([2]; pH 2.9, 100° C., 120 min): 0.2 area %

From patent publication US20030134851A1, “Methods and compositions for providing glutamine” (priority 2001, published 2003)
